Like-named read-outs stand apart in the source and are kept apart here.
Assays:
Format in all cases: cell-based
[1] = test system: varicella zoster virus (VZV) YS viral strain; test: VZV plaque reduction in tissue culture, YS strain; settings: read-out: EC50 VZV YS
[2] = Cytotoxicity to human embryonic lung cells; settings: 50% cytotoxic concentration to human embryonic lung cells
[3] = test system: human embryonic lung cells; test: Cytotoxicity to human embryonic lung cells; settings: minimum cytotoxic concentration to human embryonic lung cells
Source text: MCC AM is the minimum cytotoxic concentration to human embryonic lung cells.

[4] = test system: varicella zoster virus (VZV) viral strain YS; TK deficient; test: VZV plaque reduction in tissue culture, strain YS, TK deficient; settings: read-out: EC50 VZV TK-YS
[5] = test system: varicella zoster virus (VZV) viral strain 07; TK deficient; test: microbe, parasite or virus in culture; settings: read-out: EC50 VZV TK-07
[6] = test system: varicella zoster virus (VZV) OKA viral strain; test: microbe, parasite or virus in culture; settings: read-out: EC50 VZV OKA
[7] = test system: human embryonic lung cells; test: Cytotoxicity to human embryonic lung cells; settings: 50% cytotoxic concentration to human embryonic lung cells
[8] = Human alphaherpesvirus 3, 120 h, reduce viral plaque formation after 5 days by 50% compared to untreated control, YS viral strain
[9] = Human alphaherpesvirus 3, 120 h
[10] = reduce viral plaque formation after 5 days by 50% compared to untreated control, YS viral strain
[11] = reduce viral plaque formation after 5 days by 50%, viral strain YS, TK deficient
[12] = reduce viral plaque formation after 5 days by 50%, viral strain 07, TK deficient
[13] = reduce viral plaque formation after 5 days by 50% compared to untreated control, OKA viral strain

Row | SMILES | EC50 [1, 8] [µM] | CC50 [2] [µM] | MCC [3] | EC50 [1, 9] [µM] | EC50 [4, 9] [µM] | EC50 [5, 9] [µM] | EC50 [6, 9] [µM] | EC50 [1, 10] [µM] | EC50 [4, 11] [µM] | CC50 [7] [µM] | EC50 [5, 12] [µM] | EC50 [6, 13] [µM]
1 | Nc1nc2c(ncn2COCCO)c(=O)[nH]1 [Acyclovir, reference compound] | 1 | > 200 | >200 µM |  |  |  |  |  |  |  |  | 
2 | O=c1[nH]c(=O)n([C@H]2C[C@H](O)[C@@H](CO)O2)cc1/C=C/Br [BVDU, (E)-5-(2-bromo-vinyl)-2′-deoxyuridine, reference compound] |  |  |  | 0.003 |  |  |  |  |  |  |  | 
3 | CCCCCCCCCCc1cc2cn([C@H]3C[C@H](O)[C@@H](CO)O3)c(=O)nc2o1 [Ex2 WO 98/49177, 3-(2-deoxy-β-D-ribofuranosyl)-6-decyl-2,3-dihydrofuro [2,3-d]pyrimidin-2-one, reference compound] | 0.008 | > 50 | >50 µM |  | > 50 | > 50 | 0.015 |  |  |  |  | 
4 | CCCCCCCCc1ccc(-c2cc3cn([C@H]4C[C@H](O)[C@@H](CO)O4)c(=O)nc3o2)cc1 [Example 6, 3-(2′-deoxy-β-D-ribofuranosyl)-6-(4-n-octylphenyl)-2,3-dihydrofuro[2,3-d]pyrimidin-2-one] |  |  | ≧20 μM |  |  |  |  | 0.005 | > 20 | > 200 | > 20 | 0.015
5 | O=c1nc2oc(-c3ccccc3)cc2cn1[C@H]1C[C@H](O)[C@@H](CO)O1 [Example 7, 3-(2′-deoxy-β-D-ribofuranosyl)-6-(phenyl)-2,3-dihydrofuro-[2,3-d]pyrimidin-2-one] |  |  | >200 µM |  |  |  |  | < 0.5 | 162 | > 200 | > 200 | < 0.5
6 | Cc1ccc(-c2cc3cn([C@H]4C[C@H](O)[C@@H](CO)O4)c(=O)nc3o2)cc1 [Example 8, 3-(2′-deoxy-β-D-ribofuranosyl)-6-(4-methylphenyl)-2,3-dihydrofuro-[2,3-d]pyrimidin-2-one] |  |  | >200 µM |  |  |  |  | < 0.5 | > 200 | > 200 | 103 | < 0.5
7 | O=c1nc2oc(-c3ccc(F)cc3)cc2cn1[C@H]1C[C@H](O)[C@@H](CO)O1 [Example 10, 3-(2′-deoxy-β-D-ribofuranosyl)-6-(4-fluorophenyl)-2,3-dihydrofuro-[2,3-d]pyrimidin-2-one] |  |  | 200 µM |  |  |  |  | > 50 | > 50 | 171 | > 50 | > 50
8 | O=c1nc2oc(-c3ccc(Cl)cc3)cc2cn1[C@H]1C[C@H](O)[C@@H](CO)O1 [Example 11] | 0.08 | > 200 | ≧20 μM |  | > 20 | > 20 | 0.1 |  |  |  |  | 
9 | O=c1nc2oc(-c3ccc(Br)cc3)cc2cn1[C@H]1C[C@H](O)[C@@H](CO)O1 [Example 12, 3-(2′-deoxy-β-D-ribofuranosyl)-6-(4-bromophenyl)-2,3-dihydrofuro-[2,3-d]pyrimidin-2-one] | 0.2 | 96 | >2 µM |  | > 5 | > 5 | 0.29 |  |  |  |  | 
10 | COc1ccc(-c2cc3cn([C@H]4C[C@H](O)[C@@H](CO)O4)c(=O)nc3o2)cc1 [Example 14, 3-(2′-deoxy-β-D-ribofuranosyl)-6-(4-methoxyphenyl)-2,3-dihydrofuro-[2,3-d]pyrimidin-2-one] | 0.05 | > 200 | 200 µM |  | > 50 | > 50 |  |  |  |  |  | 
11 | CCOc1ccc(-c2cc3cn([C@H]4C[C@H](O)[C@@H](CO)O4)c(=O)nc3o2)cc1 [Example 15, 3-(2′-deoxy-β-D-ribofuranosyl)-6-(4-ethoxyphenyl)-2,3-dihydrofuro-[2,3-d]pyrimidin-2-one] | 0.01 | > 200 | 200 µM |  | > 50 | 50 |  |  |  |  |  | 
12 | CCCOc1ccc(-c2cc3cn([C@H]4C[C@H](O)[C@@H](CO)O4)c(=O)nc3o2)cc1 [Example 16, 3-(2′-deoxy-β-D-ribofuranosyl)-6-(4-n-propoxyphenyl)-2,3-dihydrofuro-[2,3-d]pyrimidin-2-one] | 0.002 | > 200 | ≧200 μM |  | > 50 | 11 |  |  |  |  |  | 
13 | CCCCCOc1ccc(-c2cc3cn([C@H]4C[C@H](O)[C@@H](CO)O4)c(=O)nc3o2)cc1 [Example 17, 3-(2′-deoxy-β-D-ribofuranosyl)-6-(4-n-pentoxyphenyl)-2,3-dihydrofuro-[2,3-d]pyrimidin-2-one] | 0.002 | > 200 | >50 µM |  | > 20 | 3.7 |  |  |  |  |  | 
14 | CCCCCCOc1ccc(-c2cc3cn([C@H]4C[C@H](O)[C@@H](CO)O4)c(=O)nc3o2)cc1 [Example 18, 3-(2′-deoxy-β-D-ribofuranosyl)-6(4-n-hexoxyphenyl)-2,3-dihydrofuro-[2,3-d]pyrimidin-2-one] | 0.002 | > 200 | >20 µM |  | > 20 | > 5 |  |  |  |  |  | 
15 | CCCCCCCOc1ccc(-c2cc3cn([C@H]4C[C@H](O)[C@@H](CO)O4)c(=O)nc3o2)cc1 [Example 19, 3-(2′-deoxy-β-D-ribofuranosyl)-6-(4-n-heptoxyphenyl)-2,3-dihydrofuro-[2,3-d]pyrimidin-2-one] | 0.002 | > 200 | ≧50 μM |  | > 20 | > 50 |  |  |  |  |  | 
